ChEMBL document CHEMBL5247586, “Discovery of fusidic acid derivatives as novel STING inhibitors for treatment of sepsis” (Eur J Med Chem, 2022)
The source made the active and inactive calls. No cut-off for these calls is given here.

Columns and labels:
Mus musculus [1] = test: (§1) Protective activity against LPS induced sepsis in BALB/c mouse model of acute liver injury assessed as improvement in blurred boundaries in liver tissue at 1.25 to 5 mg/kg, IG administered once a day for 3 days followed by LPS stimulation for 12 hrs starting from 2 hrs post last dose by hematoxylin and eosin staining based analysis; type: functional, organism-based; conditions: dose 1.25-5 mg/kg, time 86.0 hrs
[2] = molecular target: T1, Serine/threonine-protein kinase TBK1 (Mus musculus) (UniProt Q9WUN2); test: Inhibition of TBK1 phosphorylation in LPS-induced mouse RAW264.7 cells preincubated with compound for 2 hrs followed by LPS stimulation and measured after 6 hrs by Western blot analysis; type: cell-based; conditions: dose 0.5-2 µM, time 8.0 hrs
T1 sequence (whole entry): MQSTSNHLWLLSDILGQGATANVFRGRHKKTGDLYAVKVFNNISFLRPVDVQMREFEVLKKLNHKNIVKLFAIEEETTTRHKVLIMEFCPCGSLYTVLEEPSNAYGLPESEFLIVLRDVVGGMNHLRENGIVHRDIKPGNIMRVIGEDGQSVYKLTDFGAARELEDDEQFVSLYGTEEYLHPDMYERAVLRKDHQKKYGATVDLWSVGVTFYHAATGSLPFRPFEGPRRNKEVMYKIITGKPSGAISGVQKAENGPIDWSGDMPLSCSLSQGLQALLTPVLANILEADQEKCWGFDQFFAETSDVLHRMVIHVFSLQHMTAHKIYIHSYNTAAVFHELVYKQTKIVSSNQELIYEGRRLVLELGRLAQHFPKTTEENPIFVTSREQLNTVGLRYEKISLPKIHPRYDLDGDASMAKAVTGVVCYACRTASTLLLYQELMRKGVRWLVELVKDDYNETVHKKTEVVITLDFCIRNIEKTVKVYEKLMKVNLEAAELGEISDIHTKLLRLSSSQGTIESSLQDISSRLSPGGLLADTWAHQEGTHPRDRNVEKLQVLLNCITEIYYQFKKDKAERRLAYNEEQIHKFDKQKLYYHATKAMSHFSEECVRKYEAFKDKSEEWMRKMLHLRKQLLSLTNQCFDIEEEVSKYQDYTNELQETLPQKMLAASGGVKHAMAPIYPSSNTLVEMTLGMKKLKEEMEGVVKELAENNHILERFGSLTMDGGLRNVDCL

[3] = AUC(0 to infinity) in Sprague-Dawley rat administered intragastrically; type: ADME; set-up: route ig; conditions: in vivo, po
Mus musculus [4] = test: as §1, with “of disorderly arranged” for “in blurred boundaries in”; type: functional, organism-based; conditions: dose 1.25-5 mg/kg, time 86.0 hrs
[5] = Half life in Sprague-Dawley rat administered intragastrically; type: ADME; conditions: in vivo, po, route ig
[6] = molecular target: Transcription factor p65 (Mus musculus) (UniProt Q04207); test: Inhibition of p65 phosphorylation in LPS-induced mouse RAW264.7 cells preincubated with compound for 2 hrs followed by LPS stimulation and measured after 6 hrs by Western blot analysis; type: cell-based; conditions: dose 0.5-2 µM, time 8.0 hrs
[7] = molecular target: T2, Stimulator of interferon genes protein (Mus musculus) (UniProt Q3TBT3); test: Binding affinity to STING in mouse RAW264.7 cells assessed as thermal stabilization at 46 degree C measured for 8 hrs by cellular thermal shift assay; type: cell-based; conditions: dose 0-20 µM
T2 sequence (whole entry): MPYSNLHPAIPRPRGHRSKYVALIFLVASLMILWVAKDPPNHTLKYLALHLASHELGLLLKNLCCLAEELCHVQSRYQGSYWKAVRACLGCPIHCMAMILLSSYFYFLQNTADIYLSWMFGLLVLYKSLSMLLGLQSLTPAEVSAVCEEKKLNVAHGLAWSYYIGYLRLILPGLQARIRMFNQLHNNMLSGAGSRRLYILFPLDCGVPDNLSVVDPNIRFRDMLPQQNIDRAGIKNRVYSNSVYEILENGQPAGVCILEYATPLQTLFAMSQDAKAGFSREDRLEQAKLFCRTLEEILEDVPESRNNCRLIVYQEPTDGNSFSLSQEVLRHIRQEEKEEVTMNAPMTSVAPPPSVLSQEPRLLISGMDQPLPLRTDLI

[8] = Cytotoxicity against mouse RAW264.7 cells assessed as cell viability at 40 uM measured after 24 hrs by MTT assay relative to control; type: toxicity, cell-based; conditions: read-out: Activity
Mus musculus [9] = test: as §1, with “reduction” for “improvement”, “necrotic hepatocytes” for “blurred boundaries in liver tissue”; type: functional, organism-based; conditions: dose 1.25-5 mg/kg, time 86.0 hrs
Mus musculus [10] = test: Antiinflammatory activity in BALB/c mouse model of LPS induced sepsis assessed as inhibition of TNF-alpha production at 1.25 to 5 mg/kg, IG administered once a day for 3 days followed by LPS stimulation for 12 hrs starting from 2 hrs post last dose by qRT-PCR analysis; type: functional, organism-based; conditions: dose 1.25-5 mg/kg, time 86.0 hrs
[11] = molecular target: T2, Stimulator of interferon genes protein (Mus musculus); test: In vivo inhibition of STING in BALB/c mouse model of LPS induced sepsis assessed as inhibition of upregulation of phosphorylated IRF3 protein expression at 1.25 to 5 mg/kg, IG administered once a day for 3 days followed by LPS stimulation for 12 hrs starting from 2 hrs post last dose by Western blot analysis; type: functional, organism-based; conditions: dose 1.25-5 mg/kg, time 86.0 hrs
RAW264.7 [12] = test: Anti inflammatory activity in LPS-induced mouse RAW264.7 cells assessed as suppression of IL-6 levels at 0.5 to 2 uM preincubated with compound for 2 hrs followed by LPS stimulation for 6 hrs by ELISA method; type: functional, cell-based; conditions: dose 0.5-2 µM, time 8.0 hrs
[13] = AUC(0 to t) in Sprague-Dawley rat administered intragastrically; type: ADME; set-up: route ig; conditions: in vivo, po
Mus musculus [14] = test: as §1, with “reduction” for “improvement”, “inflammatory cell infiltration” for “blurred boundaries in liver tissue”; type: functional, organism-based; conditions: dose 1.25-5 mg/kg, time 86.0 hrs
[15] = MRT(0 to infinity) in Sprague-Dawley rat administered intragastrically; type: ADME; conditions: in vivo, po, route ig
Mus musculus [16] = test: Protective activity against LPS induced sepsis in BALB/c mouse model of acute liver injury assessed as reduction in ALT level in serum at 1.25 to 5 mg/kg, IG administered once a day for 3 days followed by LPS stimulation for 12 hrs starting from 2 hrs post last dose by ELISA; type: functional, organism-based; conditions: dose 1.25-5 mg/kg, time 86.0 hrs
RAW264.7 [17] = test: Anti inflammatory activity in LPS-induced mouse RAW264.7 cells assessed as inhibition of NO production at 5 uM preincubated with compound for 2 hrs followed by LPS stimulation and measured after 24 hrs by griess reagent based assay relative to control; type: functional; conditions: time 26 hrs
RAW264.7 [18] = test: Anti inflammatory activity in LPS-induced mouse RAW264.7 cells assessed as inhibition of NO production at 2.5 uM preincubated with compound for 2 hrs followed by LPS stimulation and measured after 24 hrs by griess reagent based assay relative to control; type: functional; conditions: time 26 hrs
Mus musculus [19] = test: as §1, with “congested hepatic sinusoids” for “blurred boundaries in liver tissue”; type: functional, organism-based; conditions: dose 1.25-5 mg/kg, time 86.0 hrs
[20] = molecular target: T2, Stimulator of interferon genes protein (Mus musculus); test: Binding affinity to STING in mouse RAW264.7 cells assessed as thermal stabilization at 40 to 61 degree C at 20 uM incubated for 8 hrs by cellular thermal shift assay; type: cell-based
[21] = Cmax in Sprague-Dawley rat administered intragastrically; type: ADME; set-up: route ig; conditions: in vivo, po
Mus musculus [22] = test: Antiinflammatory activity in BALB/c mouse model of LPS induced sepsis assessed as inhibition of IFN-beta production at 1.25 to 5 mg/kg, IG administered once a day for 3 days followed by LPS stimulation for 12 hrs starting from 2 hrs post last dose by qRT-PCR analysis; type: functional, organism-based; conditions: dose 1.25-5 mg/kg, time 86.0 hrs

Transcription factor p65 (Mus musculus), sequence (Q04207 whole entry): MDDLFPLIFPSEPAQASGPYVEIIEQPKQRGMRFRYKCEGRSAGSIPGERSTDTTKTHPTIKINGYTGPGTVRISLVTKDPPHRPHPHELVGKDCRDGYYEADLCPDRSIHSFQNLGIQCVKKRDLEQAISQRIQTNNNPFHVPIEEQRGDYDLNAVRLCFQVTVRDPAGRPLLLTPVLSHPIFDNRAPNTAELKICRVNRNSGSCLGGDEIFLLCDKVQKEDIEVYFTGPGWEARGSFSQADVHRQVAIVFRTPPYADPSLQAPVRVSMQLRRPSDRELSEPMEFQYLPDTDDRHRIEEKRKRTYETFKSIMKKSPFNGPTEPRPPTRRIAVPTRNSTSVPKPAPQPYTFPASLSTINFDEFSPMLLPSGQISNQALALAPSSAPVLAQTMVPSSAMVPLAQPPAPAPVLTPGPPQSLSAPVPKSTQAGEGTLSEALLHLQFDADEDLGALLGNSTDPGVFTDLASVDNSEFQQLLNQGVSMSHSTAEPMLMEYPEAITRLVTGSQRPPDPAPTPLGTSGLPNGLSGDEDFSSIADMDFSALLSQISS

inhibition [2]: Dose-Dependent Effect | AUC(0-inf) [3]: 136 ng·h/mL | half-life [5]: 1.11 h | inhibition [6]: Dose-Dependent Effect | Activity [7]: Dose-Dependent Effect | inhibition [11]: Active | AUC(0-t) [13]: 81.1 ng·h/mL | MRT inf [15]: 2.02 h | Activity [20]: Active | Cmax [21]: 66.5 ng/mL
SMILES: C=CCONC(=O)CCSSCCC(=O)O[C@@H]1CC[C@@]2(C)[C@@H](CC[C@@]3(C)[C@H]2[C@H](O)C[C@H]2/C(=C(\CCC=C(C)C)C(=O)OCc4ccccc4)[C@@H](OC(C)=O)C[C@@]23C)[C@@H]1C
Activity (Mus musculus [1]): Active | Activity (Mus musculus [4]): Active | viability at 24 h, 40 µM [8]: 91.1% | Activity (Mus musculus [9]): Active | inhibition (Mus musculus [10]): Active | Activity (RAW264.7 [12]): Active | Activity (Mus musculus [14]): Active | Activity (Mus musculus [16]): Active | inhibition at 5 µM (RAW264.7 [17]): 78.7% | inhibition at 2.5 µM (RAW264.7 [18]): 69.3% | Activity (Mus musculus [19]): Active | inhibition (Mus musculus [22]): Active
